{"source": "paper PMC6746705", "about": "“Distinct effects of Q925 mutation on intracellular and extracellular Na^+ and K^+ binding to the Na^+, K^+-ATPase” (Scientific Reports, 2019)", "system": "T1, endogenous COS-1 cell Na+, K+-ATPase", "T1 construct": "gene ATP1A1; endogenous enzyme in COS-1 plasma membranes", "assay": "high-affinity phase of biphasic ouabain inhibition of Na+,K+-ATPase activity in plasma membranes", "type": "biochemical", "data": [{"smiles": "C[C@@H]1O[C@@H](O[C@H]2C[C@@H](O)[C@]3(CO)[C@H]4[C@H](O)C[C@]5(C)[C@@H](C6=CC(=O)OC6)CC[C@]5(O)[C@@H]4CC[C@]3(O)C2)[C@H](O)[C@H](O)[C@H]1O", "note": "[ouabain]", "values": [{"measurement": "IC50", "value": "~1", "unit": "µM"}]}]}
